ChEMBL document CHEMBL4689842, “EUbOPEN Chemogenomics Library wave 1” (2021)

Tested on: U2OS
Assay: Incucyte cell viability with U2OS; note: filed as whole numbers so only -1 and 0 and 1 occur
Type: toxicity, cell-based
Conditions: human, 10 µM, compound concentration 10 uM
[1] = 0 h, replicate number 1, timepoint 0 hours
[2] = 6 h, replicate number 1, timepoint 6 hours
[3] = 12 h, replicate number 1, timepoint 12 hours
[4] = 18 h, replicate number 1, timepoint 18 hours
[5] = 24 h, replicate number 1, timepoint 24 hours
[6] = 6 h, replicate number 2, timepoint 6 hours
[7] = 18 h, replicate number 2, timepoint 18 hours
[8] = 12 h, replicate number 2, timepoint 12 hours
[9] = 0 h, replicate number 2, timepoint 0 hours
[10] = 24 h, replicate number 2, timepoint 24 hours

| SMILES | Growth Rate [1] | Growth Rate [2] | Growth Rate [3] | Growth Rate [4] | Growth Rate [5] | Growth Rate [6] | Growth Rate [7] | Growth Rate [8] | Growth Rate [9] | Growth Rate [10] |
| --- | --- | --- | --- | --- | --- | --- | --- | --- | --- | --- |
| CCc1ccc(OCc2ccccc2C(=O)Nc2ccc3nc(C)cc(N)c3c2)cc1.Cl | 0 | 0 | 0 | 0 | 0 | – | – | – | – | – |
| O=C(c1cc2c(cc1F)OC(c1ccc(F)cc1)(c1ccc(Cl)cc1Cl)O2)N1CCOCC1 (stereo not given) | 0 | – | 0 | 0 | 0 | 1 | – | – | – | – |
| CN(c1ccccc1CNc1nc(Nc2ccc3c(c2)CC(=O)N3)ncc1C(F)(F)F)S(C)(=O)=O | 0 | 0 | 0 | 0 | 0 | – | – | – | – | – |
| CCc1nn(CCCN2CCN(c3cccc(Cl)c3)CC2)c(=O)n1CCOc1ccccc1.Cl [NEFAZODONE HYDROCHLORIDE] | – | 1 | 0 | 1 | 0 | – | 0 | – | – | – |
| O=c1cc(N2CCOCC2)oc2c(-c3cccc4c3sc3ccccc34)cccc12 | 0 | 0 | 0 | 0 | 0 | 1 | – | 1 | – | – |
| C[C@]12CC[C@@H]3c4ccc(O)cc4CC[C@H]3[C@@H]1CC[C@@H]2O [ESTRADIOL] | – | 0 | 0 | 0 | 0 | – | – | – | 0 | – |
| CNC(=O)Nc1ccc2c(c1)[C@@]1(CC2)OC(=O)N(CC(=O)N(Cc2ccc(F)cc2)[C@@H](C)C(F)(F)F)C1=O [A-486] | 0 | 0 | 0 | 0 | 0 | – | – | 1 | – | 1 |
| CNC(=O)Nc1ccc(-c2nc(N3CC4CCC(C3)O4)c3cnn(C4CCC5(CC4)OCCO5)c3n2)cc1 | – | 1 | 0 | 0 | 0 | – | 1 | – | 0 | 1 |
| CC(C)c1noc(N2CCC(COc3ccc(-c4ccc(S(C)(=O)=O)cc4)nc3)CC2)n1 [GSK-1292263] | 0 | – | – | 1 | 1 | – | – | 1 | – | – |
| C=CC(=O)Nc1ccc2[nH]c(=O)n(C3CCN(Cc4ccc(-c5nc6cc[nH]c(=O)c6cc5-c5ccccc5)cc4)CC3)c2c1 [Borussertib] | – | 1 | 1 | 1 | 1 | – | – | – | 1 | 0 |
| CCCSc1nc(N[C@@H]2C[C@H]2c2ccc(F)c(F)c2)c2nnn([C@@H]3C[C@H](OCCO)[C@@H](O)[C@H]3O)c2n1 [TICAGRELOR] | 0 | 0 | 0 | 0 | 0 | – | – | – | – | – |
| CC(C)(C)NC[C@H](O)COc1nsnc1N1CCOCC1 [TIMOLOL] | 0 | – | – | 1 | 1 | 1 | – | 1 | – | – |
| O=c1[nH]c2ccccc2n1C1CCN(Cc2ccc(-c3[nH]c4cc5ncnc5cc4nc3-c3ccccc3)cc2)CC1 | 0 | – | 0 | 0 | 0 | – | 1 | 1 | – | 1 |
| C#Cc1cccc(Nc2ncnc3cc(OCCOC)c(OCCOC)cc23)c1 [ERLOTINIB] | – | – | 1 | 0 | 1 | 0 | – | 0 | 1 | 0 |
| Cc1nc(N2CC[C@H](O)C2)ncc1-c1cc(C(F)(F)F)cc2[nH]ncc12 | 1 | 0 | 1 | 0 | 0 | 1 | 1 | – | – | – |
| C=CC(=O)Nc1cccc(Sc2nc(Nc3ccc(N4CCN(C)CC4)cc3)ncc2Cl)c1 | 0 | 0 | 0 | 0 | 0 | – | – | – | – | – |
| CC(C)Oc1ccccc1C(=O)Nc1ccccc1C(=O)Nc1cccc(S(=O)(=O)C(F)(F)F)c1 | 0 | – | – | 1 | 1 | – | – | – | – | – |
| Cc1cc(C)c(-n2ccn3nc(-c4cccnc4)cc23)cc1NC(=O)c1cc(C#N)cc(S(F)(F)(F)(F)F)c1 [BAY-826] | – | 1 | 0 | 0 | 0 | – | – | – | 0 | – |

| SMILES | Growth Rate [1] | Growth Rate [2] | Growth Rate [3] | Growth Rate [4] | Growth Rate [5] | Growth Rate [6] | Growth Rate [7] | Growth Rate [8] | Growth Rate [9] | Growth Rate [10] |
| --- | --- | --- | --- | --- | --- | --- | --- | --- | --- | --- |
| Cl.O=C(O)c1cc(-c2ccc(C3CCNCC3)cc2)c2ccc(-c3ccc(C(F)(F)F)cc3)cc2c1 | 1 | 0 | 0 | 0 | 0 | – | – | – | 0 | – |
| CNCc1ccccc1-c1csc([C@@H](C)Nc2nc(C)nc3cc(OC)c(OC)cc23)c1 [BAY-293] | 0 | 0 | 0 | 0 | 0 | 1 | – | – | – | – |
| CNC(=O)c1ccc(Nc2ncc(C(F)(F)F)c(NCc3nccnc3N(C)S(C)(=O)=O)n2)cc1 [DEFACTINIB] | 0 | 1 | 0 | 0 | 0 | 0 | – | – | 1 | – |
| COC(=O)C1=C(C)NC(C)=C(C(=O)OCCCN2CCC(c3ccccc3)(c3ccccc3)CC2)[C@H]1c1cccc([N+](=O)[O-])c1 [NIGULDIPINE] | 0 | – | 0 | 0 | 0 | 0 | – | – | – | – |
| CN1CCN(Cc2ccc(Nc3ncc(Cl)c(Nc4ccccc4S(=O)(=O)N(C)C)n3)cc2)CC1 [DUBERMATINIB] | 0 | 1 | 0 | 0 | 0 | – | – | – | – | – |
| CC(C)NC(=O)N1CC[C@H](NC2=Nc3cc(F)ccc3N(CC(F)F)c3ccc(Cl)cc32)C1 | 0 | 0 | 0 | 0 | 0 | 1 | 1 | 1 | – | – |
| C=CC(=O)Nc1cccc(Oc2nc(Nc3ccc(N4CCN(C)CC4)cc3OC)ncc2Cl)c1 | 0 | 0 | 0 | 0 | 0 | – | – | – | – | – |
| CC(C)CC(=O)Nc1[nH]nc2c1CN(C(=O)C1CCN(C)CC1)C2(C)C [PHA-793887] | 1 | 0 | 0 | 0 | 0 | – | – | – | 0 | – |
| Cc1cccc(CN2CCN(C(c3ccccc3)c3ccc(Cl)cc3)CC2)c1.Cl.Cl (stereo not given) | 0 | – | – | 1 | 1 | 0 | 0 | 0 | 1 | 0 |
| CN1CCN(Cc2cc(NC(=O)c3ccc4c(c3)CN(c3ccccc3)CC4)cc(C(F)(F)F)c2)CC1 | 1 | 0 | 0 | 0 | 0 | 1 | – | – | 0 | – |
| COc1cc(Nc2nccc(-c3cnn4nc(OC)ccc34)n2)cc(C(F)(F)F)c1 | 1 | 0 | 0 | 0 | 0 | – | – | – | 0 | – |
| COc1ccccc1CN[C@H]1C2CCN(CC2)[C@H]1C(c1ccccc1)c1ccccc1 [CP-96345] | 0 | – | 1 | 1 | 1 | 1 | – | – | – | – |
| CC1=C(C(=O)Nc2cc3cn[nH]c3cc2F)C(c2ccc(C(F)(F)F)cc2)CC(=O)N1 (stereo not given) | – | – | – | 1 | 1 | – | – | – | – | – |
| Cc1c[nH]c2nccc(Oc3c(F)cc(Nc4cc(Cl)nc(N)n4)cc3F)c12 [BAY-549] | – | 0 | 0 | 0 | 0 | – | – | – | 0 | – |
| COc1ccc(-c2ccc3ncc4c(c3c2)n(-c2ccc(N3CCNCC3)c(C(F)(F)F)c2)c(=O)n4C)cn1.O=C(O)/C=C\C(=O)O [BGT-226] | 0 | 0 | 0 | 0 | 0 | – | – | – | – | – |
| Cc1ccc2c(c1)c1c(n2CCc2ccc(C)nc2)CCN(C)C1 [LATREPIRDINE] | 0 | – | 1 | 0 | 1 | 0 | – | – | – | 0 |
| CC(C)OC(=O)N1CCC(Oc2ncnc3c2cnn3-c2ccc(S(C)(=O)=O)cc2F)CC1 | 0 | – | 1 | 1 | 1 | 0 | 0 | 0 | – | 0 |
| COc1cc2ncn(-c3cc(OCc4ccccc4C(F)(F)F)c(C(N)=O)s3)c2cc1OC [GW843682X] | – | – | 1 | 0 | 0 | – | – | 0 | 0 | – |
